Structures are written as SMILES. Like-named read-outs stand apart in the source and are kept apart here.

For assay [1], the target named is HEK293 cells expressing NR1/NR2B (Homo sapiens (Human), UniProt Q05586+Q13224). Nature of the assay: NR2B NAM Assay (FDSS Ca2+ influx cell assay). Type of assay: cell-based. Conditions: NR2B NAM assay, class of inhibitory concentration; read-out: Activity Category. The procedure: (§1) Cell Culture and plating: HEK293 cells expressing NR1/NR2B (Chantest, Cleveland, Ohio) were grown to 70-80% confluency as an adherent monolayer in standard tissue culture flasks at 37° C., 5% CO2 per supplier's instructions. NR2B expression was induced by incubation with 0.3-0.4 μg/ml tetracycline in the presence of 4 mM ARL-15896 for 18-24 hours under the same growth conditions, then transferred to 30° C. for another 3-5 hours.
HEK293 cells expressing NR1/NR2B (Homo sapiens (Human), UniProt Q05586+Q13224), sequence (Q13224 27-1484, other chains not shown): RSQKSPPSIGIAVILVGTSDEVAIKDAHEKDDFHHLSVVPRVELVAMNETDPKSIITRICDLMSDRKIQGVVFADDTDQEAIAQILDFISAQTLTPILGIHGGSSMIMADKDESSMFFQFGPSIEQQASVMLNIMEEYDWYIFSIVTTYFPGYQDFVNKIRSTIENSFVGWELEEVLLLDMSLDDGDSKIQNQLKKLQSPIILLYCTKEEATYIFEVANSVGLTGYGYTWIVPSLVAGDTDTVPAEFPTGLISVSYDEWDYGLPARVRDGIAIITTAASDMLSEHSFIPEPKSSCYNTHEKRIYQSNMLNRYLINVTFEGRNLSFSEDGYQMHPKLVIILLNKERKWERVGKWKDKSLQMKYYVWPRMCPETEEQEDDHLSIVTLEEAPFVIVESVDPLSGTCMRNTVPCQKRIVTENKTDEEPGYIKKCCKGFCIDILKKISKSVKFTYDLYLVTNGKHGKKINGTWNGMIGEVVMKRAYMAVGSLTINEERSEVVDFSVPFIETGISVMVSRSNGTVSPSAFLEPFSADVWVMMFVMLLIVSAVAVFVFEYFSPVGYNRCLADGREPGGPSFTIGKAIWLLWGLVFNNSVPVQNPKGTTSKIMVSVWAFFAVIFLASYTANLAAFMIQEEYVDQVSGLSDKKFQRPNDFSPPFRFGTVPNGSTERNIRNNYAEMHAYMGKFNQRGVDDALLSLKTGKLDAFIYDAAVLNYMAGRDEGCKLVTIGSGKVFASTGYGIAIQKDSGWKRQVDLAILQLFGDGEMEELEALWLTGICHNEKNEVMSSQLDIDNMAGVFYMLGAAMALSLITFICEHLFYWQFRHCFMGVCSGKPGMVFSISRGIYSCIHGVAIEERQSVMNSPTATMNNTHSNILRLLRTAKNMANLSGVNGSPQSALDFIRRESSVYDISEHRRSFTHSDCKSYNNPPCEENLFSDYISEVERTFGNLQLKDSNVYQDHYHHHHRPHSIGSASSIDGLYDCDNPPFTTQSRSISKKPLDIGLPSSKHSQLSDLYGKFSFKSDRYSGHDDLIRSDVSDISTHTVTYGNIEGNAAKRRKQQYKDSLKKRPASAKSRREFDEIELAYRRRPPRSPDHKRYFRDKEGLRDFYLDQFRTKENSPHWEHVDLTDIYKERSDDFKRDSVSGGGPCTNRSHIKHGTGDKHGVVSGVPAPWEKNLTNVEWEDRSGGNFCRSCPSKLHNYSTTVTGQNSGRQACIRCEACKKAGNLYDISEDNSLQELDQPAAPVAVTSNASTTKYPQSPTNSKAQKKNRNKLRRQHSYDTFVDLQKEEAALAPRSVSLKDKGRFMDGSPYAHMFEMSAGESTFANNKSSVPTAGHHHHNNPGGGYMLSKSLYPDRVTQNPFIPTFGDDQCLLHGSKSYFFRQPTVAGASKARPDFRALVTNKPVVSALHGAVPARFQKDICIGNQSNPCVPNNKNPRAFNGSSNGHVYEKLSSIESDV
(§2) After induction, cell culture medium was removed and cells were rinsed once with Ca^2+ and Mg^2+-free Dulbecco's phosphate buffered saline. Cells were then removed from the flask using TrypLE™ Express (Life Technologies) according to the manufacturer's instructions and collected to 50 ml centrifuge tubes. Following two washes in Ca^2+/Mg^2+-free HBSS with 20 mM HEPES (HHnoCa), cells were counted and viability assessed using trypan blue. To load cells with Ca^2+-sensitive dye, they were resuspended in fluo-8 plus Component B (AAT Bioquest Products) diluted in HHnoCa and incubated 15 minutes at 37° C., followed by 30 minutes at room temp (in dark). Cells were then washed and resuspended in HHnoCa to remove extracellular dye and plated in 384-well plates (Falcon, uncoated) at 20,000-30,000 cells/well in a final volume of 25 μl/well.
(§3) FDSS Assay: To each well of the plate, 10 μL test compound, control (MK801) or HHnoCa buffer was added at different concentrations to yield final concentrations of 0.001, 0.003, 0.010, 0.030, 0.100, 0.300, 1.000, 3.000, 10.000, or 30.000 uM final concentration of DMSO of 0.1%. Following 10 minutes pre-incubation in the dark, plates are loaded onto the Hamamatsu FDSS 6000. After collecting baseline fluorescence images, 3 μM glutamate, 3 μM glycine, and 1 mM Ca^2+ in HHnoCa buffer is added to each well, and Ca^2+ is recorded for 3 minutes. Data were processed by computing ratio of fluorescence at the end of data collection to baseline fluorescence to assess degree of Ca^2+ influx inhibition relative to that observed in MK801.
(§4) Table 8 below provides activity of each compound according to the legend that “++++” indicates inhibition at a concentration<100 nM; “+++” indicates inhibition at a concentration between 100 nM and 1 μM of the disclosed compound; “++” indicates inhibition at a concentration of from 1 μM to 10 μM; and “+” indicates inhibition at a concentration>10 μM.

Assay [2] deals with HEK293 cells expressing NR1/NR2B (Homo sapiens (Human), UniProt Q13224). In words: NR2B NAM Assay (FDSS Ca2+ influx cell assay). Type of assay: cell-based. The procedure:
as §1, §2, §3, §4

Setting [3] is: Ca2+ influx inhibition relative to MK801, 3 μM glutamate, 3 μM glycine, 1 mM Ca2+, read-out: NR2B NAM IC50.

HEK293 cells expressing NR1/NR2B (Homo sapiens (Human), UniProt Q13224), sequence (Q13224 27-1484, other chains not shown): as above

In the case of `O=C(CN1C[C@H]2C[C@H](Oc3ccc(F)c(F)c3)C[C@H]2C1)c1ccc(O)cc1`, the IC50 is below 100 nM in assay [1] and 61.6 nM in assay [2] (setting [3]).

For the compound `Oc1ccc(C(O)CN2C[C@H]3C[C@H](Oc4ccc(F)c(F)c4)C[C@H]3C2)cc1` (stereo partly shown), the IC50 was below 100 nM in assay [1] and 14 nM in assay [2] (setting [3]).

With `O=C(CN1C[C@H]2C[C@H](Oc3ccc(F)c(F)c3)C[C@H]2C1)c1ccc(O)cn1`, the IC50 is 1000 to 10000 nM in assay [1] and 1260 nM in assay [2] (setting [3]).

Turning to `O=C(CN1C[C@H]2C[C@H](Oc3ccc(F)cc3)C[C@H]2C1)c1ccc(O)cn1`, the figures for the IC50 in assay [1] and in assay [2] (setting [3]) were 100 to 1000 nM and 699 nM, respectively.

For `Oc1ccc(C(O)CN2C[C@H]3C[C@@H](Oc4ccc(F)cc4)C[C@H]3C2)cc1F` (stereo partly shown), the IC50 is below 100 nM in assay [1] and 30.5 nM in assay [2] (setting [3]).

Regarding `Cc1ccc(O[C@H]2C[C@@H]3CN(CC(=O)c4ccc(O)c(F)c4)C[C@@H]3C2)cn1`, the IC50 in assay [1] is 1000 to 10000 nM; in assay [2] (setting [3]), 2370 nM.

For the compound `Cc1ccc(O[C@H]2C[C@@H]3CN(CC(O)c4ccc(O)c(F)c4)C[C@@H]3C2)cn1` (stereo partly shown), the values for the IC50 in assay [1] and in assay [2] (setting [3]) were below 100 nM and 90 nM, respectively.

Turning to `COc1ccc(O[C@@H]2C[C@@H]3CN(CC(O)c4ccc(O)cc4)C[C@@H]3C2)cc1` (stereo partly shown), the IC50 in assay [1] was 100 to 1000 nM; in assay [2] (setting [3]), 112 nM.

On to `COc1ccc(O[C@@H]2C[C@@H]3CN(CC(=O)c4ccc(O)cn4)C[C@@H]3C2)cc1`, for which the values for the IC50 in assay [1] and in assay [2] (setting [3]) were 1000 to 10000 nM and 7100 nM, respectively.

Consider `Oc1ccc(C(O)CN2C[C@H]3C[C@@H](Oc4ccc(F)cc4)C[C@H]3C2)cc1` (stereo partly shown), for which the figures for the IC50 in assay [1] and in assay [2] (setting [3]) were below 100 nM and 17.8 nM, respectively.

As for `O=C(CN1C[C@H]2C[C@H](Oc3ccncc3)C[C@H]2C1)c1ccc(O)cc1`, the IC50 in assay [1] was 1000 to 10000 nM; in assay [2] (setting [3]), 2780 nM.

`Oc1ccc(C(O)CN2C[C@H]3C[C@H](Oc4ccncc4)C[C@H]3C2)cc1` (stereo partly shown): the figures for the IC50 in assay [1] and in assay [2] (setting [3]) were 1000 to 10000 nM and 4470 nM, respectively.

`Cc1ncccc1O[C@H]1C[C@@H]2CN(CC(=O)c3ccc(O)cc3)C[C@@H]2C1`: the IC50 in assay [1] is 100 to 1000 nM; in assay [2] (setting [3]), 134 nM.

`Cc1ncccc1O[C@H]1C[C@@H]2CN(CC(O)c3ccc(O)cc3)C[C@@H]2C1` (stereo partly shown): the IC50 in assay [1] is 100 to 1000 nM; in assay [2] (setting [3]), 188 nM.

For the compound `COc1ccc(O[C@H]2C[C@@H]3CN(CC(=O)c4ccc(O)c(F)n4)C[C@@H]3C2)cc1`, the IC50 in assay [1] was above 10000 nM; in assay [2] (setting [3]), 10000 nM.

As for `COc1ccc(O[C@H]2C[C@@H]3CN(CC(O)c4ccc(O)c(F)n4)C[C@@H]3C2)cc1` (stereo partly shown), the IC50 in assay [1] was 1000 to 10000 nM; in assay [2] (setting [3]) it was 3290 nM.

In the case of `O=C(CN1C[C@H]2C[C@@H](Oc3cccnc3)C[C@H]2C1)c1ccc(O)cc1`, the IC50 was 1000 to 10000 nM in assay [1] and 5220 nM in assay [2] (setting [3]).

Turning to `Oc1ccc(C(O)CN2C[C@H]3C[C@@H](Oc4cccnc4)C[C@H]3C2)cc1` (stereo partly shown), the results for the IC50 in assay [1] and in assay [2] (setting [3]) were 1000 to 10000 nM and 8000 nM, respectively.

On to `N#Cc1cccc(O[C@H]2C[C@@H]3CN(CC(=O)c4ccc(O)cn4)C[C@@H]3C2)c1`, for which the IC50 in assay [1] is above 10000 nM; in assay [2] (setting [3]), 10000 nM.

With `O=C(CN1C[C@H]2C[C@H](Oc3cccc4cnccc34)C[C@H]2C1)c1ccc(O)cc1`, the IC50 was 100 to 1000 nM in assay [1] and 409 nM in assay [2] (setting [3]).

As to `Oc1ccc(C(O)CN2C[C@H]3C[C@H](Oc4cccc5cnccc45)C[C@H]3C2)cc1` (stereo partly shown), the figures for the IC50 in assay [1] and in assay [2] (setting [3]) were 100 to 1000 nM and 191 nM, respectively.

Regarding `COc1ccc(O[C@@H]2C[C@@H]3CN(CC(O)c4ccc(O)cn4)C[C@@H]3C2)cc1` (stereo partly shown), the IC50 in assay [1] was 100 to 1000 nM; in assay [2] (setting [3]), 440 nM.

In the case of `Oc1ccc(C(O)CN2C[C@H]3C[C@@H](Oc4ccc(F)c(F)c4)C[C@H]3C2)nc1` (stereo partly shown), the IC50 in assay [1] is below 100 nM; in assay [2] (setting [3]), 37.6 nM.

For the compound `N#Cc1ccc(O[C@@H]2C[C@@H]3CN(CC(=O)c4ccc(O)cn4)C[C@@H]3C2)cc1`, the IC50 was above 10000 nM in assay [1] and 10000 nM in assay [2] (setting [3]).

With `O=C(CN1C[C@H]2C[C@@H](Oc3ccc(F)c(F)c3)C[C@H]2C1)c1ccc(O)cc1`, the IC50 was below 100 nM in assay [1] and 68.6 nM in assay [2] (setting [3]).

Consider `O=C(CN1C[C@H]2C[C@H](Oc3ccccc3)C[C@H]2C1)c1ccc(O)cc1`, for which the IC50 is below 100 nM in assay [1] and 10.7 nM in assay [2] (setting [3]).

For `Oc1ccc(C(O)CN2C[C@H]3C[C@H](Oc4ccccc4)C[C@H]3C2)cc1` (stereo partly shown), the IC50 in assay [1] was below 100 nM; in assay [2] (setting [3]), 5.96 nM.

Consider `O=C(CN1C[C@H]2C[C@H](Oc3cccnc3F)C[C@H]2C1)c1ccc(O)cn1`, for which the IC50 in assay [1] is above 10000 nM; in assay [2] (setting [3]) it was 10000 nM.

On to `COc1ncccc1O[C@H]1C[C@@H]2CN(CC(=O)c3ccc(O)cc3)C[C@@H]2C1`, for which the IC50 in assay [1] is above 10000 nM; in assay [2] (setting [3]), 10000 nM.

For `COC(CN1C[C@H]2C[C@H](Oc3ccc(F)cc3)C[C@H]2C1)c1ccc(OCc2ccccc2)cc1` (stereo partly shown), the IC50 was above 10000 nM in assay [1] and 10000 nM in assay [2] (setting [3]).

`Oc1ccc(C(O)CN2C[C@H]3C[C@H](Oc4cccnc4F)C[C@H]3C2)nc1` (stereo partly shown): the IC50 is below 100 nM in assay [1] and 20.9 nM in assay [2] (setting [3]).

Take `Oc1ccc(C(O)CN2C[C@H]3C[C@@H](Oc4ccc(F)c(F)c4)C[C@H]3C2)cc1` (stereo partly shown): the IC50 in assay [1] is below 100 nM; in assay [2] (setting [3]), 80.7 nM.

For `N#Cc1ccc(O[C@@H]2C[C@@H]3CN(CC(O)c4ccc(O)cn4)C[C@@H]3C2)cc1` (stereo partly shown), the results for the IC50 in assay [1] and in assay [2] (setting [3]) were above 10000 nM and 10000 nM, respectively.

For the compound `O=C(CN1C[C@H]2C[C@H](Oc3ccccc3)C[C@H]2C1)c1ccc(O)cn1`, the figures for the IC50 in assay [1] and in assay [2] (setting [3]) were 1000 to 10000 nM and 6240 nM, respectively.

For `O=C(CN1C[C@H]2C[C@H](Oc3cccnc3F)C[C@H]2C1)c1ccc(O)c(F)c1`, the figures for the IC50 in assay [1] and in assay [2] (setting [3]) were above 10000 nM and 10000 nM, respectively.

`Oc1ccc(C(O)CN2C[C@H]3C[C@H](Oc4ccccc4F)C[C@H]3C2)cc1` (stereo partly shown): the IC50 in assay [1] was below 100 nM; in assay [2] (setting [3]) it was 4.44 nM.

`O=C(CN1C[C@H]2C[C@H](Oc3ccccc3F)C[C@H]2C1)c1ccc(O)cc1`: the IC50 in assay [1] was below 100 nM; in assay [2] (setting [3]) it was 16.8 nM.

For the compound `Oc1ccc(C(O)CN2C[C@H]3C[C@H](Oc4ccccc4)C[C@H]3C2)nc1` (stereo partly shown), the IC50 in assay [1] was below 100 nM; in assay [2] (setting [3]), 5.72 nM.

`Oc1ccc(C(O)CN2C[C@H]3C[C@H](Oc4cccnc4F)C[C@H]3C2)cc1F` (stereo partly shown): the values for the IC50 in assay [1] and in assay [2] (setting [3]) were below 100 nM and 21.7 nM, respectively.

`O=C(CN1C[C@H]2C[C@H](Oc3ccc(F)nc3)C[C@H]2C1)c1ccc(O)cc1`: the IC50 in assay [1] was below 100 nM; in assay [2] (setting [3]) it was 55.2 nM.

As to `O=C(CN1C[C@H]2C[C@H](Oc3ccc(F)nc3)C[C@H]2C1)c1ccc(O)cn1`, the IC50 in assay [1] was above 10000 nM; in assay [2] (setting [3]), 10000 nM.

Consider `Oc1ccc(C(O)CN2C[C@H]3C[C@H](Oc4ccc(F)nc4)C[C@H]3C2)cc1` (stereo partly shown), for which the IC50 is below 100 nM in assay [1] and 74.1 nM in assay [2] (setting [3]).

As for `O=C(CN1C[C@H]2C[C@H](Oc3ccccc3F)C[C@H]2C1)c1ccc(O)cn1`, the IC50 is 100 to 1000 nM in assay [1] and 219 nM in assay [2] (setting [3]).

Regarding `Oc1ccc(C(O)CN2C[C@H]3C[C@H](Oc4ccc(F)nc4)C[C@H]3C2)nc1` (stereo partly shown), the IC50 in assay [1] was 100 to 1000 nM; in assay [2] (setting [3]), 112 nM.

On to `O=C(CN1C[C@H]2C[C@H](Oc3ccc(F)cc3F)C[C@H]2C1)c1ccc(O)cn1`, for which the IC50 is 1000 to 10000 nM in assay [1] and 1150 nM in assay [2] (setting [3]).

As to `O=C(CN1C[C@H]2C[C@H](Oc3c(F)cccc3F)C[C@H]2C1)c1ccc(O)cn1`, the IC50 in assay [1] was 1000 to 10000 nM; in assay [2] (setting [3]), 1080 nM.

Turning to `OC(CN1C[C@H]2C[C@H](Oc3ccc(F)cc3)C[C@H]2C1)c1cn[nH]c1` (stereo partly shown) [drawing 268], the IC50 in assay [2] (setting [3]) is 1980 nM; in assay [2] (NR2B NAM assay, class of inhibitory concentration, read-out: Activity Category), 1000 to 10000 nM.

Values taken from patent publication US10239835B2, “N-alkylaryl-5-oxyaryl-octahydro-cyclopenta[c]pyrrole negative allosteric modulators of NR2B” (Luc Therapeutics, Inc., priority 2014, dated 2019).
